Experiments:
Assay in all cases: in vitro antibacterial evaluation, MIC by broth dilution
Type in all cases: cell-based
Escherichia coli = tested on: Escherichia coli
Outline: (§1)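 Read-out: the lowest concentration at which the test strain fails to grow. Serial dilutions (64-0.06 μg/mL) in Muller-Hinton II […], 5×10^5 CFU/mL inoculum, NCCLS M7-A2 procedure.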

Staphylococcus sp. = details: broth dilution, 18 hours at 35° C.; for MIC Staphylococcus aureus (GC 1131): strain GC 1131
Outline: as §1

Enterococcus sp. = details: broth dilution, 18 hours at 35° C.; for MIC Enterococcus faecalis (ATCC 29212): strain ATCC 29212; for MIC Enterococcus faecalis (GC 2242): strain GC 2242; for MIC Enterococcus faecium (GC 2243): strain GC 2243; for MIC Enterococcus faecalis (GC 2691): strain GC 2691; for MIC Enterococcus faecalis (GC 3059): strain GC 3059; for MIC Enterococcus faecalis (GC 4552): strain GC 4552; for MIC Enterococcus faecalis (GC 4553): strain GC 4553; for MIC Enterococcus faecalis (GC 4554): strain GC 4554; for MIC Enterococcus faecium (GC 4556): strain GC 4556; for MIC Enterococcus faecium (GC 4557): strain GC 4557; for MIC Enterococcus avium (GC 4558): strain GC 4558; for MIC Enterococcus faecalis (GC 6189): strain GC 6189
Outline: as §1

Streptococcus sp. = details: broth dilution, 18 hours at 35° C.; for MIC Streptococcus pneumoniae (ATCC 6301): strain ATCC 6301; for MIC Streptococcus pneumoniae (GC 1894): strain GC 1894; for MIC Streptococcus pyogenes (GC 4563): strain GC 4563; for MIC Streptococcus agalactiae (GC 4564): strain GC 4564; for MIC Streptococcus pneumoniae (GC 4565): strain GC 4565
Outline: as §1

CC(c1ccccc1)C1NC(=O)CNC(=O)C(CO)NC(=O)C(C(O)C2CNC(=N)N2C2OC(CO)C(O)C(O)C2O)NC(=O)C(C(O)C2CNC(=N)N2)NC(=O)C(Cc2ccc(OC3OC(CO)C(OC4OC5COC(c6ccc(-c7cccs7)cc6)OC5C(O)C4O)C(O)C3O)cc2)NC1=O (stereo not drawn) [Example 163]
64 µg/mL: MIC Escherichia coli (GC 4559) (Escherichia coli; strain GC 4559, 18 hours at 35° C.)
4 µg/mL: MIC Staphylococcus aureus (GC 1131) (Staphylococcus sp.; inoculum 5×10^5 CFU/mL) | MIC Staphylococcus aureus (ATCC 29213) (Staphylococcus sp.; strain ATCC 29213) | MIC Staphylococcus aureus (GC 1131) (Staphylococcus sp.) | MIC Staphylococcus aureus (GC 4541) (Staphylococcus sp.; strain GC 4541) | MIC Staphylococcus aureus (GC 4542) (Staphylococcus sp.; strain GC 4542) | MIC Staphylococcus aureus (GC 4544) (Staphylococcus sp.; strain GC 4544) | MIC Staphylococcus aureus (GC 4545) (Staphylococcus sp.; strain GC 4545) | MIC Staphylococcus haemolyticus (GC 4546) (Staphylococcus sp.; strain GC 4546) | MIC Coagulase Negative Staphylococcus (GC 4549) (Staphylococcus sp.; strain GC 4549) | MIC Enterococcus faecalis (GC 2242) (Enterococcus sp.; inoculum 5×10^5 CFU/mL) | MIC Enterococcus faecalis (GC 2691) (Enterococcus sp.; inoculum 5×10^5 CFU/mL) | MIC Enterococcus faecalis (GC 4553) (Enterococcus sp.; inoculum 5×10^5 CFU/mL) | MIC Enterococcus faecium (GC 4556) (Enterococcus sp.; inoculum 5×10^5 CFU/mL) | MIC Enterococcus avium (GC 4558) (Enterococcus sp.; inoculum 5×10^5 CFU/mL) | MIC Enterococcus faecalis (GC 6189) (Enterococcus sp.; inoculum 5×10^5 CFU/mL) | MIC Enterococcus faecalis (GC 2242) (Enterococcus sp.) | MIC Enterococcus faecalis (GC 2691) (Enterococcus sp.) | MIC Enterococcus faecalis (GC 4553) (Enterococcus sp.) | MIC Enterococcus faecium (GC 4556) (Enterococcus sp.) | MIC Enterococcus avium (GC 4558) (Enterococcus sp.) | MIC Enterococcus faecalis (GC 6189) (Enterococcus sp.)
>64 µg/mL: MIC Escherichia coli (ATCC 25922) (Escherichia coli; strain ATCC 25922, 18 hours at 35° C.)
8 µg/mL: MIC Escherichia coli (GC 4560) (Escherichia coli; strain GC 4560, 18 hours at 35° C.) | MIC Staphylococcus aureus (GC 3051) (Staphylococcus sp.; strain GC 3051) | MIC Staphylococcus aureus (GC 3053) (Staphylococcus sp.; strain GC 3053) | MIC Coagulase Negative Staphylococcus (GC 4547) (Staphylococcus sp.; strain GC 4547) | MIC Enterococcus faecalis (ATCC 29212) (Enterococcus sp.; inoculum 5×10^5 CFU/mL) | MIC Enterococcus faecium (GC 2243) (Enterococcus sp.; inoculum 5×10^5 CFU/mL) | MIC Enterococcus faecalis (GC 3059) (Enterococcus sp.; inoculum 5×10^5 CFU/mL) | MIC Enterococcus faecalis (GC 4552) (Enterococcus sp.; inoculum 5×10^5 CFU/mL) | MIC Enterococcus faecalis (GC 4554) (Enterococcus sp.; inoculum 5×10^5 CFU/mL) | MIC Enterococcus faecium (GC 4557) (Enterococcus sp.; inoculum 5×10^5 CFU/mL) | MIC Enterococcus faecalis (ATCC 29212) (Enterococcus sp.) | MIC Enterococcus faecium (GC 2243) (Enterococcus sp.) | MIC Enterococcus faecalis (GC 3059) (Enterococcus sp.) | MIC Enterococcus faecalis (GC 4552) (Enterococcus sp.) | MIC Enterococcus faecalis (GC 4554) (Enterococcus sp.) | MIC Enterococcus faecium (GC 4557) (Enterococcus sp.)
1 µg/mL: MIC Staphylococcus aureus-SMITH (GC 4543) (Staphylococcus sp.; strain GC 4543) | MIC Coagulase Negative Staphylococcus (GC 4548) (Staphylococcus sp.; strain GC 4548) | MIC Staphylococcus aureus-SMITH (GC 4543) (Staphylococcus sp.; strain SMITH GC 4543) | MIC Streptococcus pneumoniae (GC 4565) (Streptococcus sp.; inoculum 5×10^5 CFU/mL) | MIC Streptococcus pneumoniae (GC 4565) (Streptococcus sp.)
2 µg/mL: MIC Coagulase Negative Staphylococcus (GC 4551) (Staphylococcus sp.; strain GC 4551) | MIC Coagulase Negative Staphylococcus (GC 6257) (Staphylococcus sp.; strain GC 6257)
<0.5 µg/mL: MIC Streptococcus pneumoniae (ATCC 6301) (Streptococcus sp.; inoculum 5×10^5 CFU/mL) | MIC Streptococcus pneumoniae (GC 1894) (Streptococcus sp.; inoculum 5×10^5 CFU/mL) | MIC Streptococcus pyogenes (GC 4563) (Streptococcus sp.; inoculum 5×10^5 CFU/mL) | MIC Streptococcus agalactiae (GC 4564) (Streptococcus sp.; inoculum 5×10^5 CFU/mL) | MIC Streptococcus pneumoniae (ATCC 6301) (Streptococcus sp.) | MIC Streptococcus pneumoniae (GC 1894) (Streptococcus sp.) | MIC Streptococcus pyogenes (GC 4563) (Streptococcus sp.) | MIC Streptococcus agalactiae (GC 4564) (Streptococcus sp.)

From US6914045B2, “Glycopeptide antibiotics” (Wyeth Holdings Corporation, priority 2001, dated 2005)
